Target: wild-type human cardiac sodium channel, hNav1.5 (Homo sapiens, UniProt Q14524)
Test: Late INa screening assay (automated whole cell patch clamp, PatchXpress)
Assay type: cell-based
Settings: compound at 1 μM; HEK293 cells expressing hNav1.5; late INa generated with 10 μM Tefluthrin (or 50 nM ATX II); read-out: LateINa_1 uM (percent block of late INa)
Procedure, shortened: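 Late sodium current through wild-type human hNav1.5 stably expressed in HEK293 cells (no beta subunits) was recorded by automated whole-cell patch clamp on a PatchXpress 7000A at 24-27° C. Late INa was induced with 10 μM Tefluthrin or 50 nM ATX II. Cells were stepped from −120 mV to −20 mV for 250 ms at 0.1 Hz, and percent block was normalized to current in Na-free extracellular solution.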

Sequence of wild-type human cardiac sodium channel, hNav1.5 (Q14524 whole entry): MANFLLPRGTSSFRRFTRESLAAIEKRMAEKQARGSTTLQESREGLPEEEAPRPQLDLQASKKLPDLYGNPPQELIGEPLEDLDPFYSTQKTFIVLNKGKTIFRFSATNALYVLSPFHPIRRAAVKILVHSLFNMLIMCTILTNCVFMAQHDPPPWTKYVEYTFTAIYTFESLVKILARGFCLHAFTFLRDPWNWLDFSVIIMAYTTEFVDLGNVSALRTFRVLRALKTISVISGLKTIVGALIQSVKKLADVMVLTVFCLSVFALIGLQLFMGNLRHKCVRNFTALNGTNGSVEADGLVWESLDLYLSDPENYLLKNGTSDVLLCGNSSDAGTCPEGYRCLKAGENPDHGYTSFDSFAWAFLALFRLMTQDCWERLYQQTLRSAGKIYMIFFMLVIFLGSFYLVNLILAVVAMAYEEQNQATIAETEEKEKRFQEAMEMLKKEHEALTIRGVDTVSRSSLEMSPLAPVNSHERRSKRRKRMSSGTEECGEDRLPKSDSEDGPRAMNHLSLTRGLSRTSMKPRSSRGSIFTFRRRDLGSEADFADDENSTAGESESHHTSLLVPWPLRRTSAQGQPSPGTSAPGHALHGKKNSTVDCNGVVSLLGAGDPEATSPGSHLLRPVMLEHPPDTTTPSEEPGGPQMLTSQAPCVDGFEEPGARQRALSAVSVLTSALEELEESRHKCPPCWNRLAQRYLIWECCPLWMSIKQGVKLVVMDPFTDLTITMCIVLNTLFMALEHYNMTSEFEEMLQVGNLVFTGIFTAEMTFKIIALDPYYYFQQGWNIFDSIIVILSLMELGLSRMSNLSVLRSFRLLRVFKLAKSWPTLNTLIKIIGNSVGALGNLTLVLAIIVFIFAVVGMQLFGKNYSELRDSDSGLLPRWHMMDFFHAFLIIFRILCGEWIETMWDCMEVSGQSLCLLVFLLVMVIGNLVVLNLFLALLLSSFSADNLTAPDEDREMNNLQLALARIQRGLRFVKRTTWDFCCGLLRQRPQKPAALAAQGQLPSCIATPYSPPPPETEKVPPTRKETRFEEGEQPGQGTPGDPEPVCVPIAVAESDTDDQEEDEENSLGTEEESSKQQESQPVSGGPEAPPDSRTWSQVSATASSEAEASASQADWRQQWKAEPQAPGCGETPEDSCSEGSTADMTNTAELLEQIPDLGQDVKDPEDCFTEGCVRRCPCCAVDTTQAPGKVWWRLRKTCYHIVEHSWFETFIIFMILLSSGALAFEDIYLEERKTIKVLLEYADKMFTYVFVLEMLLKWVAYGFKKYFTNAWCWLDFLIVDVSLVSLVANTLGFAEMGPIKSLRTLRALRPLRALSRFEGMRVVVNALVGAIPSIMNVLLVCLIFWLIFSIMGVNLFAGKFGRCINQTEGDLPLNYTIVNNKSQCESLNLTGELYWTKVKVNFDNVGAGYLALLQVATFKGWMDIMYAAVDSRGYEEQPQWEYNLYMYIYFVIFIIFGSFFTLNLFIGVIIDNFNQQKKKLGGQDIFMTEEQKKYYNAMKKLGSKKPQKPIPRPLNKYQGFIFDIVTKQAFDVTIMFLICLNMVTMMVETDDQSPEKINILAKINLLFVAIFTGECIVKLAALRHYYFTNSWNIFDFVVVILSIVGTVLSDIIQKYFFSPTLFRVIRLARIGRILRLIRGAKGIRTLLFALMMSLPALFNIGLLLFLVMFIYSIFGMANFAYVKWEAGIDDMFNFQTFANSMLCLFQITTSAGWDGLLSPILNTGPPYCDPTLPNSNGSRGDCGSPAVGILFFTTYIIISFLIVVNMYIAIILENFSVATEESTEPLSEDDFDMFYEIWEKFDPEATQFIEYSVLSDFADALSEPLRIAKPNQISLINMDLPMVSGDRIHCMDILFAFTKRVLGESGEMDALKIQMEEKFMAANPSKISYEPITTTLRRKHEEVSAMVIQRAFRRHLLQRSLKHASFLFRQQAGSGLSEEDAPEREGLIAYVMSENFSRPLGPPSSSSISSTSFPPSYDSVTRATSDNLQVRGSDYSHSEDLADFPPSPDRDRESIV

Row | Structure (SMILES) | inhibition at 1 µM [%]
1 | FC(F)(F)Oc1ccc(-c2ccc3nnc(C(F)(F)OCc4cn(-c5ccccc5)nn4)n3c2)cc1 [BHN-215, 3-{difluoro[(1-phenyl-1H-1,2,3-triazol-4-yl)methoxy]methyl}-6-[4-(trifluoromethoxy)phenyl][1,2,4]triazolo[4,3-a]pyridine] | 36.4
2 | FC(F)(F)Oc1ccc(-c2ccc3nnc(C(F)(F)OCc4cccnn4)n3c2)cc1 [BHN-216, 3-[difluoro(pyridazin-3-ylmethoxy)methyl]-6-[4-(trifluoromethoxy)phenyl][1,2,4]triazolo[4,3-a]pyridine] | 26.1
3 | CC(OC(F)(F)c1nnc2ccc(-c3ccc(OC(F)(F)F)cc3)cn12)c1ccc(F)cc1 (centres unmarked) [BHN-217, 3-{difluoro[1-(4-fluorophenyl)ethoxy]methyl}-6-[4-(trifluoromethoxy)phenyl][1,2,4]triazolo[4,3-a]pyridine] | 16.8
4 | Clc1ccc(Oc2ccc(-c3ccc4nnnn4c3)cc2)cc1 [BHN-218, 6-[4-(4-chlorophenoxy)phenyl]tetrazolo[1,5-a]pyridine] | 36
5 | FC(F)(F)COc1ccc(-c2ccc3nnnn3c2)cn1 [BHN-219, 6-[6-(2,2,2-trifluoroethoxy)pyridin-3-yl]tetrazolo[1,5-a]pyridine] | 36.9
6 | COC(C)(C)c1ccc(-c2ccc3nnc(C(F)(F)F)n3c2)cc1 [BHN-220, 6-[4-(2-methoxypropan-2-yl)phenyl]-3-(trifluoromethyl)[1,2,4]triazolo[4,3-a]pyridine] | 58.5
7 | FC(F)(F)COc1ccc(-c2ccc3nnc(C(F)(F)F)n3n2)cn1 [BHN-221, 6-[6-(2,2,2-trifluoroethoxy)pyridin-3-yl]-3-(trifluoromethyl)[1,2,4]triazolo[4,3-b]pyridazine] | 55
8 | CCOc1cc(OC(F)(F)F)ccc1-c1ccc2nnc(C(F)(F)F)n2c1 [BHN-222, 6-[2-ethoxy-4-(trifluoromethoxy)phenyl]-3-(trifluoromethyl)[1,2,4]triazolo[4,3-a]pyridine] | 65.3
9 | CC(C)Oc1cc(OC(F)(F)F)ccc1-c1ccc2nnc(C(F)(F)F)n2c1 [BHN-223, 6-[2-(propan-2-yloxy)-4-(trifluoromethoxy)phenyl]-3-(trifluoromethyl)[1,2,4]triazolo[4,3-a]pyridine] | 54.5
10 | Cn1nc(COC(F)(F)c2nnc3ccc(-c4ccc(OC(F)(F)F)cc4)cn23)cc1-c1ccccc1 [BHN-224, 3-{difluoro[(1-methyl-5-phenyl-1H-pyrazol-3-yl)methoxy]methyl}-6-[4-(trifluoromethoxy)phenyl][1,2,4]triazolo[4,3-a]pyridine] | 24.2
11 | FC(F)(F)Oc1ccc(-c2ccc3nnc(C(F)(F)OCc4ccc5c(c4)OC(F)(F)O5)n3c2)cc1 [BHN-225, 3-{[(2,2-difluoro-1,3-benzodioxol-5-yl)methoxy](difluoro)methyl}-6-[4-(trifluoromethoxy)phenyl][1,2,4]triazolo[4,3-a]pyridine] | 63
12 | FC(F)(F)Oc1ccc(-c2ccc3nnc(COCc4ccc(C(F)(F)F)cc4)n3c2)cc1 [BHN-226, 6-[4-(trifluoromethoxy)phenyl]-3-({[4-(trifluoromethyl)benzyl]oxy}methyl)[1,2,4]triazolo[4,3-a]pyridine] | 59.3
13 | Fc1ccc(COCc2nnc3ccc(-c4ccc(OC(F)(F)F)cc4)cn23)cc1 [BHN-227, 3-{[(4-fluorobenzyl)oxy]methyl}-6-[4-(trifluoromethoxy)phenyl][1,2,4]triazolo[4,3-a]pyridine] | 79.8
14 | Cc1nc(COC(F)(F)c2nnc3ccc(-c4ccc(OC(F)(F)F)cc4)cn23)c(C)o1 [BHN-228, 3-{[(2,5-dimethyl-1,3-oxazol-4-yl)methoxy](difluoro)methyl}-6-[4-(trifluoromethoxy)phenyl][1,2,4]triazolo[4,3-a]pyridine] | 73

— patent publication US8952034B2, “Fused heterocyclic compounds as ion channel modulators” (Gilead Sciences, Inc., priority 2009, dated 2015)
